# Data published in patent US12292380B2, “Integrated microfluidic device for capture and spectroscopic characterization of live cells under various treatment conditions” (CORNELL UNIVERSITY, priority 2018, dated 2025).
# Key:
# A431 cells [1] = assay: MEIRS monitoring of trypsinization (detachment of adherent cells from the metasurface), PCA of reflection spectra; type: cell-based; conditions: 0.025% trypsin at t=66 min, between t=66 min and t=100 min, time resolution 1 min
# Method: (§1) The following method is used for monitoring a drug's effect of the cells. The method can be implemented using the same or similar detection unit 100, detection device 300, and detection system 10, as described above and shown in FIGS. 1 and 2-12. First, the metasurface 102 is assembled with the microfluidic chamber 302, and the cells are seeded on the metasurface 102 in culture media. The cells are then incubated until they are well-adhered on the metasurface 102. The metasurface 102 (with cells) is then transferred to a FTIR microscope 20 for continuous collection of IR spectra. Background spectra of the cells are collected for some time, before the drug to be tested is introduced to the cells via a microfluidic pump (such as a syringe pump 20 like that shown in FIG. 12). […]
# Referring briefly to FIG. 24, there are shown contrast microscopy images of A431 cells on the metasurface 102 and graphs of the resulting PCA scores/loadings obtained from their spectra. The most robust adhesion-related effects, such as trypsinization (i.e., the detachment of adherent cells from the metasurface 102 by application of trypsin, a proteolytic enzyme that breaks down adhesion proteins), can be easily detected using MEIRS. […] Reflection spectra were analyzed using principal components analysis (PCA). […]
# A431 cells [2] = assay: MEIRS measurement of the response of A431 cells to epidermal growth factor, PCA of reflectance spectra; type: cell-based; conditions: 40 nM EGF injected at t=240 min, time resolution 1 min
# Method: as §1, with “spectra.” for “spectra. Background spectra of the cells are collected for some time, before the drug to be tested is introduced to the cells via a microfluidic pump (such as a syringe pump 20 like that shown in FIG. 12).”
# Referring briefly to FIG. 25, there are shown graphs of the resulting PCA scores/loadings obtained from A431 cells with the addition of epidermal growth factor (EGF). […] Specifically, 40 nM EGF was injected to the microfluidic measurement chamber 302 at t=240 min., while continuously monitored with time resolution of Δt=1 min. The measured reflectance spectra were analyzed using PCA. […] Although the biological interpretation of such signal is still not clear, it is hypothesized that the measured response corresponds to at least two processes in the cell, likely related to the cells' cytoskeletal reorganization in response of EGF.
Substance,time evolution of the PC1 score (cell detachment from the metasurface) (A431 cells [1]),PC1 score response to EGF (A431 cells [2]),time for PC2 score to recover to the baseline level before the EGF injection (A431 cells [2])
trypsin,rapid detachment of the cells,,
"epidermal growth factor (NSDSECPLSHDGYCLHDGVCMYIEALDKYACNCVVGYIGERCQYRDLKWWELR; Epidermal growth factor; UniProt P01133 971-1023, looked up) [EGF, epidermal growth factor (EGF)]",,permanent change to the cell,about 200 min
